Entries after “also recorded” stand apart in the source; their conditions may differ.
Experiments:
MAP2 = assay: Binding (affinity) by displacement of PREG-3H
[1] = system: purified tubulin and MAP2; assay: Activity: increase in optical density at 345 nm of purified tubulin and MAP2 with GTP; type: biochemical; conditions: 37° C.
Method: Activity is measured by the increase in optical density at 345 nm of a mixture of purified tubulin and MAP2, incubated at 37° C. in the presence of GTP.

PC12 cells = assay: Stimulation of neuritic sprouting on PC12 cells differentiated with NGF; type: cell-based; conditions: NGF 10 ng/ml, steroid 30 μM, 3 days, relative to PREG
Method: Stimulation of neuritic sprouting is conducted on PC12 cells differentiated in the presence of NGF (10 ng/ml) and the steroid being tested (30 μM) for 3 days. For each condition, the average length of the longest 200 neurites in each cell is measured simultaneously for 3 cultures.

[2] = system: Wistar Kyoto rat strain (WKY); conditions: WKY rats, literature; cited from earlier work
WKY rats = conditions: cited from earlier work; for resistance of WKY rats to the drug: fluoxetine acute or chronic, citalopram acute, paroxetine sub-chronic (12 days)
Wistar Kyoto (WKY) rats = assay: Open-field arena (OFA) in WKY rats, acute treatment; type: in vivo, rat; conditions: fluoxetine 10 mg/kg i.p., ketamine 30 mg/kg i.p.; for number of entries in the central square of OFA, change vs WKY receiving only vehicle: FIG. 5B; for time spent in the center of open-field vs WKY receiving vehicle: FIG. 5C
Method: After a 6-day period of acclimatization, all experimental groups received daily successive subcutaneous (250 μl per rat) and intraperitoneal (1 ml/kg) injections. WI rats received injection of vehicle (sesame oil+saline) while WKY rats were randomly assigned to […] experimental groups, as follow: KWY rats receiving only vehicle (sesame oil+saline) and WKY rats treated with MAP4343 (10 mg/kg, s.c.; rats received in parallel i.p. injections of saline), fluoxetine (10 mg/kg i.p., rats received in parallel s.c. injections of sesame oil) or ketamine (30 mg/kg, i.p.; rats received in parallel s.c. injections of sesame oil) (see FIG. 3).
After, a 6-day period of acclimatization, the acute phase of treatment started for 4 days during behavioral tests were performed (FIG. 3). All animals were injected 1 h 30 before the starting of behavioral test.
The animals were individually placed in the open field arena (OFA) (70×100×70 cm), with a central square (35×50 cm), located in a 50 lux illuminated room and videotaped during 3 min using a computerized system (VideoTrack V2.5, ViewPoint, Lyon, France).
OFA allows firstly the evaluation of total locomotor activity (LMA) thereby measuring the total distance travelled in the arena (in cm). Secondly, measurements of the activity in the center of the arena like (i) the number of entries in the center of arena and (ii) the total time spent in the center of arena (in sec) provide cues of anxiety-like behavior (Prut and Belzung, 2003). All these behavioral parameters were instantaneously measured automatically with the VideoTrack V2.5 software from the videos.

[3] = Body weight of WKY rats under acute treatment; type: in vivo, rat; conditions: fluoxetine 10 mg/kg
[4] = target: T1, human progesterone receptor (PR) (Homo sapiens, UniProt P06401); assay: Test of progesterone receptor agonist activity (MMTV-luciferase transactivation in transfected HEK293T cells); type: cell-based; conditions: 24 hours, increasing amounts, FIG. 1
T1 construct: expressed in transfected cells; host or cells: HEK293T
T1 sequence (P06401 1-933): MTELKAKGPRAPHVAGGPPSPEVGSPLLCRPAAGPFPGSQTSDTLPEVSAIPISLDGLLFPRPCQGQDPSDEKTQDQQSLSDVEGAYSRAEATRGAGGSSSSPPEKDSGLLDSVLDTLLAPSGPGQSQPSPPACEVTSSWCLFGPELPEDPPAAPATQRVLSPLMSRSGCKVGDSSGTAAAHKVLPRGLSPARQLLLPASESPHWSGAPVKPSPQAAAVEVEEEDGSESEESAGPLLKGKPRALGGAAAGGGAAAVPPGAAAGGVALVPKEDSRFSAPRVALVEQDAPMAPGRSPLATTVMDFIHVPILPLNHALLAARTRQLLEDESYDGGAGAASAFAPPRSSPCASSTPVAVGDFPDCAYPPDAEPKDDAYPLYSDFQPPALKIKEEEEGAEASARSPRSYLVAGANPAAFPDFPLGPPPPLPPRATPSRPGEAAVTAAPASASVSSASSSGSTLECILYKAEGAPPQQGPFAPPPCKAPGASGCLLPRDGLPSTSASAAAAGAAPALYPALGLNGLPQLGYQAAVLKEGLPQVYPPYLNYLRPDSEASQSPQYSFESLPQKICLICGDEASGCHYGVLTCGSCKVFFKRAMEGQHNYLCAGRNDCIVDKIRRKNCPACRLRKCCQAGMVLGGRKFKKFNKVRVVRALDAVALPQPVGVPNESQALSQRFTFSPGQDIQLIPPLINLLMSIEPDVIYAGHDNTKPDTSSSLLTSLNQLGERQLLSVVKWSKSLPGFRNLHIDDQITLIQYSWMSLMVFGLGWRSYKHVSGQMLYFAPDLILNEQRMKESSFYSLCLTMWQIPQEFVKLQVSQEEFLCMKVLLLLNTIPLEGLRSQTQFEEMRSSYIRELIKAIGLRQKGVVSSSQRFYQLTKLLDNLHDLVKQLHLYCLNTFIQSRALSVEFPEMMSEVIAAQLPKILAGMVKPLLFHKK
Method: The main experimental setting used is the following: HEK293T cells were transiently transfected, using calcium phosphate precipitation technology, with expression vectors pSG5hPR (which permits expression of human progesterone receptor (PR)), pFC31-luc (contains the luciferase gene under the control of the MMTV promoter, which is in turn activated by binding of a progestin to progesterone receptor) and pcbetagal (which permits expression of betagalactosidase), and cultured during 24 hours with increasing amounts of various compositions:
Test of Progesterone Receptor Agonist Activity: Transfected Cells were Cultured with Increasing Amounts of Progesterone or 3-Methoxy-Pregnenolone

Row | Molecule | Affinity (MAP2) | Activity [1] | also measured
1 | CC(=O)[C@H]1[C@H](C)C[C@H]2[C@@H]3CC[C@H]4C[C@@H](O)CC[C@]4(C)[C@H]3CC[C@@]21C [3β-hydroxy-5α-pregnane-20-one-16α-methyl] | 57% of PREG | 53% of PREG | –
2 | CO[C@H]1CC[C@@]2(C)[C@@H](CC[C@@H]3[C@@H]2CC[C@]2(C)[C@@H](C(C)=O)CC[C@@H]32)C1 [3β-methoxy-5α-pregnane-20-one] | 87% of PREG | 10% of PREG | –
3 | CO[C@H]1CC[C@@]2(C)C(CCC3C2CC[C@@]2(C)C3CC[C@@H]2[C@@H](C)O)C1 (stereo partly drawn) [3β-methoxy-5α-pregnane-20β-ol] | 65% of PREG | 65% of PREG | –
4 | CO[C@H]1CC[C@@]2(C)C(=CC[C@H]3C4=CC[C@H](C(C)=O)[C@@]4(C)CC[C@@H]32)C1 [3β-methoxy-pregna-5,14-diene-20-one] | 102% of PREG | 50% of PREG | –
5 | CO[C@H]1CC[C@@]2(C)C(=CC[C@@H]3[C@@H]2CC[C@@]2(C)[C@H]3CC[C@@]2(C(C)=O)C(Cl)Cl)C1 [3β-methoxy-pregna-5-ene-20-one-17α-dichloromethyl] | 53% of PREG | 113% of PREG | –
6 | CC(=O)[C@@]12C[C@@H]1C[C@H]1[C@@H]3CC=C4C[C@@H](O)CC[C@]4(C)[C@H]3CC[C@@]12C [PREG-16α,17α-methylene] | 62% of PREG | 49% of PREG | Neuritic sprouting (PC12 cells): + (lower than)
7 | CC(=O)[C@H]1[C@H](C)C[C@H]2[C@@H]3CC=C4C[C@@H](O)CC[C@]4(C)[C@H]3CC[C@@]21C [PREG-16α-methyl] | 80% of PREG | 70% of PREG | Neuritic sprouting (PC12 cells): ++ (equal to)
8 | CC(=O)[C@H]1[C@@H](C)C[C@H]2[C@@H]3CC=C4C[C@@H](O)CC[C@]4(C)[C@H]3CC[C@@]21C [PREG-16β-methyl] | 63% of PREG | 67% of PREG | –
9 | CC(=O)OC(C)C1CCC2C3CC=C4CC(O)CCC4(C)C3CCC12C (stereo not drawn) [Pregna-5-ene-3β, 20β-dio1-20-acetate] | 60% of PREG | 108% of PREG | Neuritic sprouting (PC12 cells): ++ (equal to)
10 | CC(=O)[C@H]1CC[C@H]2[C@@H]3CC=C4C[C@@H](O)CC[C@]4(C)[C@H]3CC[C@]12C [Pregnenolone (PREG), 3β-hydroxypregn-5α-en-20α-one, reference compound] | 100% of PREG | 100% of PREG | Neuritic sprouting (PC12 cells): ++ (equal to)
11 | CNCCCN1c2ccccc2CCc2ccccc21 [desipramine] | – | – | immobility / depressive-like behavior in FST [2]: efficient to reverse depressive-like behavior
12 | CNCCC(Oc1ccc(C(F)(F)F)cc1)c1ccccc1 (stereo not drawn) [fluoxetine] | – | – | efficacy in OFA, EPM and FST (WKY rats; WKY rats, acute or chronic administration): no efficacy; resistance of WKY rats to the drug (WKY rats): resistant; number of entries in the central square of OFA, change vs WKY receiving only vehicle (Wistar Kyoto (WKY) rats; MAP4343 10 mg/kg s.c.): failed to significantly modify the low entries in the center; time spent in the center of open-field vs WKY receiving vehicle (Wistar Kyoto (WKY) rats; MAP4343 10 mg/kg s.c.): did not induce any significant change of this measure; locomotor activity (total distance travelled in the open-field arena), change vs MAP4343-treated WKY (Wistar Kyoto (WKY) rats; FIG. 5A): −52%; body weight [3]: a reduced body weight
13 | CNC1(c2ccccc2Cl)CCCCC1=O (stereo not drawn) [ketamine] | – | – | locomotor activity (total distance travelled in the open-field arena), change vs WKY receiving vehicle (Wistar Kyoto (WKY) rats; MAP4343 10 mg/kg s.c., 3 min, FIG. 5A): no significant change of locomotor activity; number of entries in the central square of OFA, change vs WKY receiving only vehicle (Wistar Kyoto (WKY) rats; MAP4343 10 mg/kg s.c.): failed to significantly modify the low entries in the center; time spent in the center of open-field vs WKY receiving vehicle (Wistar Kyoto (WKY) rats; MAP4343 10 mg/kg s.c.): did not induce any significant change of this measure; locomotor activity (total distance travelled in the open-field arena), change vs MAP4343-treated WKY (Wistar Kyoto (WKY) rats; FIG. 5A): no significant change of locomotor activity; immobility / depressive-like behavior in FST [2]: elicited antidepressant-like effect; also recorded: decrease immobility
14 | Fc1ccc([C@@H]2CCNC[C@H]2COc2ccc3c(c2)OCO3)cc1 [paroxetine] | – | – | resistance of WKY rats to the drug (WKY rats): resistant
15 | NNCCc1ccccc1 [phenelzine] | – | – | immobility / depressive-like behavior in FST [2]: subacute efficacy to reduce immobility
16 | CC(=O)[C@H]1CC[C@H]2[C@@H]3CCC4=CC(=O)CC[C@]4(C)[C@H]3CC[C@]12C [progesterone, reference compound] | – | – | progesterone receptor agonist activity (transactivation, expression of luciferase) [4]: permits a transactivation activity
17 | PREG-16α,17α-epoxy | 41% of PREG | 54% of PREG | Neuritic sprouting (PC12 cells): + (lower than)
